The source of these data is patent US20190025285A1, “METHODS OF DETERMINING RELATIVE POTENCY OF GLATIRAMER ACETATE AND USE THEREOF IN PREPARING A BATCH OF GLATIRAMER ACETATE AS ACCEPTABLE FOR PHARMACEUTICAL USE” (InSight Biopharmaceutical Ltd., priority 2015, published 2019).

The subject of one test is multiple sclerosis. Conditions: cited from earlier work.
In test [1] the test system is Experimental Autoimmune Encephalomyelitis. To be noted: various animal species; cited from earlier work.
Test [2] relates to LNCs extracted from mice immunized with Poly-YAK (YB106). The test is described as follows: Ex-vivo potency assay: immunization with Poly-YAK (YB106), in-vitro stimulation of LNCs, IL-2 ELISA. It counts as cell-based, mouse. Conditions: specificity samples as in-vitro stimulators. The text has this:
The present inventors developed an ex-vivo biological potency assay to determine the relative potency of GA based on effecting the first stimulus by immunizing mice in-vivo with Poly-YAK (also referred to as activation), and the second stimulus by in-vitro stimulation (also referred to as stimulation) with GA. The assay is composed of 6 major steps depicted in FIG. 1.
Briefly, mice are immunized with a pre-determined amount of Poly-YAK (YB106), mixed 1:1 with CFA (step 1). Eight to ten days later, the mice are sacrificed and draining lymph nodes are harvested. Lymph node cells (LNCs) are extracted from the lymph nodes and counted (step 2). […] The Level of IL-2 secretion from the cells into the culture media is determined by a commercial IL-2 ELISA (step 4).
In order to determine the relative potency of a tested batch, IL-2 secretion by the LNCs incubated with the tested batch samples is compared to the IL-2 secretion by the LNCs incubated with RS samples (step 5). Parallelism of the RS and tested batch curves and potency of the tested batch are determined accordingly (step 6). […]
Lymph node cells (LNCs) extraction—The primary culture of LNCs was prepared 8 to 10 days following immunization. […] The cells were then collected in 10-20 ml RPMI or AIM-V complete medium and counted by hemocytometer using Erythrosine B (Sigma, cat no. E9259). […]
In general terms: ELISA stands for enzyme-linked immunosorbent assay.

For “L-glutamic acid polymer with L-alanine, L-lysine and L-tyrosine, acetate (salt) [GA]”, the “total number of enhancing lesions as measured by MRI” value with multiple sclerosis (MS patients, 20 mg/day subcutaneous dose) is reported as “reduce the total number of enhancing lesions”. Also, the frequency of relapses result with multiple sclerosis (relapsing-remitting MS clinical trials) was “reduce the frequency of relapses”. In test [1], the “suppression of EAE” value is reported as “suppress Experimental Autoimmune Encephalomyelitis”.

Regarding “MBP peptide (87-99): Myelin Basic Protein peptide 87-99 (BACHEM H-1964), negative control (SRPHLIRLFSRDA; UniProt P02686 87-99, looked up, fragment)”, the “IL-2 secretion response pattern in comparison to RS” value in test [2] is listed as “did not induce IL-2 secretion response”.
